According to patent publication US20240408093A1, “HETEROBIFUNCTIONAL COMPOUNDS AND THEIR USE IN TREATING DISEASE” (HALDA THERAPEUTICS OPCO, INC., priority 2022, published 2024):

Key:
[1] = target: T1, GSPT1 (Homo sapiens, UniProt P15170+Q96SW2); test: GSPT1 HiBiT degradation assay; assay type: cell-based; settings: HEK293 LgBiT GSPT1 HiBiT cells, 6 hours
T1 construct: host or cells: HEK293 LgBiT / GSPT1 HiBiT CRISPR knock-in
In short: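 HEK293 CRISPR knock-in cells expressing LgBiT and GSPT1-HiBiT were seeded at 1000 cells/well and, after 18-24 h, treated with titrated compound plus endurazine (0.5× final) at 37 °C. Luminescence read after 6 h; loss of signal reflects GSPT1 degradation, giving DC50.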

[2] = system: HeLa cells (ATCC CCL-2); test: Cellular growth inhibition assay, HeLa cells (Example 16); assay type: cell-based; settings: Homo sapiens, 72 hours, CellTiter-Glo 2.0
[3] = system: HEK293 cells (ATCC CRL-1573); test: Cellular growth inhibition assay, HEK293 cells (Example 16); assay type: cell-based; settings: Homo sapiens, 72 hours, CellTiter-Glo 2.0
[4] = target: KRAS G12C (Homo sapiens, UniProt P01116, G12C); test: KRAS G12C nucleotide exchange assay (SOS1-mediated, HTRF); assay type: biochemical; set-up: GST-tagged KRAS G12C (amino acids 2-169); settings: 1 hr pre-incubation
Procedure: KRAS target engagement (IC50 determination) was performed using a KRAS G12C nucleotide exchange assay. Specifically, compounds were tested against KRAS G12C in 10-point concentration IC50 mode with 3-fold serial dilution at a starting concentration of 10 μM. ARS1620 was used as a control.
Briefly, GST-tagged KRAS G12C (amino acids 2-169) was mixed with anti-GST Tb antibody (1.5× solution) and 10 μL was delivered to reaction wells. Compounds were delivered using an acoustic dispenser (Echo, Labcyte) and pre-incubated with protein for 1 hr at RT. KRAS/anti-GST Tb Ab/compound mixture was incubated for 1 hour at room temperature. A 3× solution of SOS1 (amino acids 564-1049) and GTP-DY-647P1 (GTP*) was prepared in reaction buffer. A 5 μL aliquot of SOS1/GTP* solution was added to reaction wells to initiate the exchange reaction. No-SOS1 reaction or max compound concentration was used as blank. The final concentrations of KRAS G12C, SOS1, and GTP* were 30 nM, 20 nM, and 0.15 μM, respectively. SOS1 mediated exchange of GDP to GTP-DY-647P was measured using HTRF (Ex/Em=(320-75/665-7.5; 615-8.5)) using an Envision Plate Reader (Perkin Elmer). IC50 determination was performed using a Sigmoidal dose response (variable slope) equation.

T1 sequence (P15170 whole entry): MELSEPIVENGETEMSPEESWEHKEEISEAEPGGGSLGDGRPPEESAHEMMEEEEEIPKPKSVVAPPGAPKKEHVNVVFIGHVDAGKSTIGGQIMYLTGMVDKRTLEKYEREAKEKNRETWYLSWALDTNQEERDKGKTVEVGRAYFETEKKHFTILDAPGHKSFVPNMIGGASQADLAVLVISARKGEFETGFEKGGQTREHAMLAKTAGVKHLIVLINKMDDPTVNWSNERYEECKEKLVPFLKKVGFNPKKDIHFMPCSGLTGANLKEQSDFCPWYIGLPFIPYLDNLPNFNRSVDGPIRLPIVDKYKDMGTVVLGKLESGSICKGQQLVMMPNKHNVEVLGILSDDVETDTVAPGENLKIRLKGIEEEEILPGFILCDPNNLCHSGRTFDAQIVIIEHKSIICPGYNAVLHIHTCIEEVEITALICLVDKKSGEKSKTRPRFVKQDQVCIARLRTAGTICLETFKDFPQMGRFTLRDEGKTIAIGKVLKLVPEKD
T1 sequence (Q96SW2 whole entry): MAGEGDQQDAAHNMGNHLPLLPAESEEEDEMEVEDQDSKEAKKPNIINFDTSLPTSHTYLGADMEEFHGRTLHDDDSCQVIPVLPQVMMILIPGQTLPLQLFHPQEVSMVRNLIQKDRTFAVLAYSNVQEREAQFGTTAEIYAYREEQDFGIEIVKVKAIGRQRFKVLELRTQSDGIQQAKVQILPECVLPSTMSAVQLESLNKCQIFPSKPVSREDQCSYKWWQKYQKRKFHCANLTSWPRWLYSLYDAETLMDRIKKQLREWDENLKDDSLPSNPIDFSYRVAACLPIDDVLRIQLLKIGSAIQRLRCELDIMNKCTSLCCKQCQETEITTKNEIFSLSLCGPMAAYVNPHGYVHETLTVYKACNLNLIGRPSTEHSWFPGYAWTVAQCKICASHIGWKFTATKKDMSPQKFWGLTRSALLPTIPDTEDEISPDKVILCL
T1 sequence (Q16531 whole entry partner): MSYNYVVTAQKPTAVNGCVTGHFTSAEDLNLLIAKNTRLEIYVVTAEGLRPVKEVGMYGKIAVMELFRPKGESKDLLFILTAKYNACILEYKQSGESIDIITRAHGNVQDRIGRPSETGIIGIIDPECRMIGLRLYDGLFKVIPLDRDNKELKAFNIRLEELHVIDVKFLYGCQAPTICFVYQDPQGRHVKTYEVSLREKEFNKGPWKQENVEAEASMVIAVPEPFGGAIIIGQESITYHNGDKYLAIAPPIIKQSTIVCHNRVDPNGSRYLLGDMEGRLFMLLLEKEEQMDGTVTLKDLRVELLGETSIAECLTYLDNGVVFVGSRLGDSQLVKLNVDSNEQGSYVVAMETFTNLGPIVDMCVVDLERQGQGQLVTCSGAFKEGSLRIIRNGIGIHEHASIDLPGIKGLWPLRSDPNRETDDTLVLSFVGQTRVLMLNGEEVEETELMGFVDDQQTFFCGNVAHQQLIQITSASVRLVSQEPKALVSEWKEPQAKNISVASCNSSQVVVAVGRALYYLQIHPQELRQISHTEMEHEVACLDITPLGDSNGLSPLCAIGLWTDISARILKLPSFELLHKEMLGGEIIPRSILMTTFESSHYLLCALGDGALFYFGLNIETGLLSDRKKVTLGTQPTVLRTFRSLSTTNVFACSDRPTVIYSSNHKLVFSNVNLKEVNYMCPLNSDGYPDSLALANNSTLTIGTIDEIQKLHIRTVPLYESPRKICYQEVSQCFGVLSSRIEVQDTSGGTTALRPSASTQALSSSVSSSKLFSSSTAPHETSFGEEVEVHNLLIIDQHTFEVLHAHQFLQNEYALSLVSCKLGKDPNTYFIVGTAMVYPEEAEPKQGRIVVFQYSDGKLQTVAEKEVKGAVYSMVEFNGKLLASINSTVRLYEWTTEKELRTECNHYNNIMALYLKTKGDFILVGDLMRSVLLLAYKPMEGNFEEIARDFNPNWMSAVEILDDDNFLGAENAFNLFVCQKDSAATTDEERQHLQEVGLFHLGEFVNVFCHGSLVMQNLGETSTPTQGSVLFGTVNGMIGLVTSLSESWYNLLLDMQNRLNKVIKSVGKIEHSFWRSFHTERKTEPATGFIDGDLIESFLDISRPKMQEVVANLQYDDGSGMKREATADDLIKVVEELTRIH
KRAS G12C, sequence (P01116 2-169 isoform P01116-2 G12C): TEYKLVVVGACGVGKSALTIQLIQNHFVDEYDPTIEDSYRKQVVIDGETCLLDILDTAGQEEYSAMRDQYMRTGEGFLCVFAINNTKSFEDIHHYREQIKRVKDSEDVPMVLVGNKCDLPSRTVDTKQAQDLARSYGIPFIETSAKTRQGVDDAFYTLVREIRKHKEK

Row | SMILES | DC50 [1] | GI50 [2] | GI50 [3] | IC50 [4]
1 | C=C(COc1cc(Cl)cc(NC(=O)NCc2ccc3c(c2)CN(C2CCC(=O)NC2=O)C3=O)c1)C(=O)N1CC2(CC(n3nc(-c4ccc5c(cnn5C)c4)c(-c4c(Cl)c(C)cc5[nH]ncc45)c3C)C2)C1 (stereo not drawn) [Compound I-56] | > 2500 nM | < 500 nM | 500 to 1500 nM | 100 to 5000 nM
2 | C=C(CN(C)c1cccc(NC(=O)NCc2ccc3c(c2)CN(C2CCC(=O)NC2=O)C3=O)c1)C(=O)N1CCN(c2nc(OC[C@@H]3CCCN3C)nc3c2CCN(c2cccc4cccc(Cl)c24)C3)C[C@@H]1CC#N (stereo partly drawn) [Compound I-58] | > 2500 nM | 1500 to 10000 nM | 1500 to 10000 nM | 5000 to 10000 nM
3 | C=C(COc1cc(F)c(F)cc1NC(=O)NCc1ccc2c(c1)CN(C1CCC(=O)NC1=O)C2=O)C(=O)N1CCN(c2nc(OC[C@@H]3CCCN3C)nc3c2CCN(c2cccc4cccc(Cl)c24)C3)C[C@@H]1CC#N (stereo partly drawn) [Compound I-62] | 500 to 2500 nM | > 10000 nM | > 10000 nM | < 100 nM
4 | C=C(COc1ccccc1CNC(=O)NCc1ccc2c(c1)CN(C1CCC(=O)NC1=O)C2=O)C(=O)N1CCN(c2nc(OC[C@@H]3CCCN3C)nc3c2CCN(c2cccc4cccc(Cl)c24)C3)C[C@@H]1CC#N (stereo partly drawn) [Compound I-63] | > 2500 nM | > 10000 nM | > 10000 nM | < 100 nM
5 | C=C(COc1cc(Cl)cc(NC(=O)NCc2cc3c(cc2F)C(=O)N(C2CCC(=O)NC2=O)C3)c1)C(=O)N1CCN(c2nc(OC[C@@H]3CCCN3C)nc3c2CCN(c2cccc4cccc(Cl)c24)C3)C[C@@H]1CC#N (stereo partly drawn) [Compound I-64] | 500 to 2500 nM | > 10000 nM | 500 to 1500 nM | < 100 nM
6 | C=C(COc1cc(Cl)c(OC)cc1NC(=O)NCc1ccc2c(c1)CN(C1CCC(=O)NC1=O)C2=O)C(=O)N1CC2(CC(n3nc(-c4ccc5c(cnn5C)c4)c(-c4c(Cl)c(C)cc5[nH]ncc45)c3C)C2)C1 (stereo not drawn) [Compound I-66] | 50 to 500 nM | 500 to 1500 nM | < 500 nM | 100 to 5000 nM
7 | C=C(COc1cc(NC(=O)NCc2ccc3c(c2)CN(C2CCC(=O)NC2=O)C3=O)cc(OC)c1)C(=O)N1CC2(CC(n3nc(-c4ccc5c(cnn5C)c4)c(-c4c(Cl)c(C)cc5[nH]ncc45)c3C)C2)C1 (stereo not drawn) [Compound I-67] | 500 to 2500 nM | > 10000 nM | > 10000 nM | 100 to 5000 nM
8 | C=C(COc1cc(NC(=O)NCc2ccc3c(c2F)CN(C2CCC(=O)NC2=O)C3=O)cc(C(F)(F)F)c1)C(=O)N1CC2(CC(n3nc(-c4ccc5c(cnn5C)c4)c(-c4c(Cl)c(C)cc5[nH]ncc45)c3C)C2)C1 (stereo not drawn) [Compound I-68] | > 2500 nM | > 10000 nM | < 500 nM | 100 to 5000 nM
9 | C=C(COC(=O)c1c(C)csc1NC(=O)NCc1ccc2c(c1)CN(C1CCC(=O)NC1=O)C2=O)C(=O)N1CCN(c2nc(OC[C@@H]3CCCN3C)nc3c2CCN(c2cccc4cccc(Cl)c24)C3)C[C@@H]1CC#N (stereo partly drawn) [Compound I-72, 2-[(2S)-4-[7-(8-chloro-1-naphthyl)-2-[[(2S)-1-methylpyrrolidin-2-yl]methoxy]-6,8-dihydro-5H-pyrido[3,4-d]pyrimidin-4-yl]-2-(cyanomethyl)piperazine-1-carbonyl]allyl 2-[[2-(2,6-dioxo-3-piperidyl)-1-oxo-isoindolin-5-yl]methylcarbamoylamino]-4-methyl-thiophene-3-carboxylate] | > 2500 nM | 1500 to 10000 nM | 1500 to 10000 nM | < 100 nM
10 | C=C(COC(=O)NCc1cc(Cl)cc(NC(=O)NCc2ccc3c(c2)CN(C2CCC(=O)NC2=O)C3=O)c1)C(=O)N1CCN(c2nc(OC[C@@H]3CCCN3C)nc3c2CCN(c2cccc4cccc(Cl)c24)C3)C[C@@H]1CC#N (stereo partly drawn) [Compound I-73] | 50 to 500 nM | 1500 to 10000 nM | < 500 nM | < 100 nM
11 | C=C(COC(=O)NCCCc1cc(Cl)cc(NC(=O)NCc2ccc3c(c2)CN(C2CCC(=O)NC2=O)C3=O)c1)C(=O)N1CCN(c2nc(OC[C@@H]3CCCN3C)nc3c2CCN(c2cccc4cccc(Cl)c24)C3)C[C@@H]1CC#N (stereo partly drawn) [Compound I-74] | 500 to 2500 nM | 1500 to 10000 nM | 500 to 1500 nM | < 100 nM
12 | C=C(COc1cc(NC(=O)NCc2ccc3c(c2)CN(C2CCC(=O)NC2=O)C3=O)cc(F)c1F)C(=O)N1CCN(c2nc(OC[C@@H]3CCCN3C)nc3c2CCN(c2cccc4cccc(Cl)c24)C3)C[C@@H]1CC#N (stereo partly drawn) [Compound I-75] | > 2500 nM | > 10000 nM | > 10000 nM | < 100 nM
13 | C=C(COc1ccc(Cl)cc1NC(=O)NCc1ccc2c(c1)CN(C1CCC(=O)NC1=O)C2=O)C(=O)N1CC2(CC(n3nc(-c4ccc5c(cnn5C)c4)c(-c4c(Cl)c(C)cc5[nH]ncc45)c3C)C2)C1 (stereo not drawn) [Compound I-76] | 50 to 500 nM | 500 to 1500 nM | < 500 nM | 100 to 5000 nM
14 | C=C(COc1cc(NC(=O)NCc2ccc3c(c2)CN(C2CCC(=O)NC2=O)C3=O)cc(C(F)(F)F)c1)C(=O)N1CC2(CC(n3nc(-c4ccc5c(cnn5C)c4)c(-c4c(Cl)c(C)cc5[nH]ncc45)c3C)C2)C1 (stereo not drawn) [Compound I-77] | 50 to 500 nM | > 10000 nM | 500 to 1500 nM | 100 to 5000 nM
15 | C=C(COc1cc(Cl)cc(NC(=O)NCc2ccc3c(c2)CN(C2CCC(=O)NC2=O)C3=O)c1F)C(=O)N1CCN(c2nc(OC[C@@H]3CCCN3C)nc3c2CCN(c2cccc4cccc(Cl)c24)C3)C[C@@H]1CC#N (stereo partly drawn) [Compound I-84] | 50 to 500 nM | 1500 to 10000 nM | < 500 nM | > 10000 nM
16 | C=C(COc1cc(NC(=O)NCc2ccc3c(c2F)CN(C2CCC(=O)NC2=O)C3=O)cc(C(F)(F)F)c1)C(=O)N1CCN(c2nc(OC[C@@H]3CCCN3C)nc3c2CCN(c2cccc4cccc(Cl)c24)C3)C[C@@H]1CC#N (stereo partly drawn) [Compound I-85] | 50 to 500 nM | > 10000 nM | 1500 to 10000 nM | < 100 nM
17 | C=C(COc1c(Cl)cccc1NC(=O)NCc1ccc2c(c1)CN(C1CCC(=O)NC1=O)C2=O)C(=O)N1CCN(c2nc(OC[C@@H]3CCCN3C)nc3c2CCN(c2cccc4cccc(Cl)c24)C3)C[C@@H]1CC#N (stereo partly drawn) [Compound I-86] | < 50 nM | 500 to 1500 nM | < 500 nM | < 100 nM
18 | C=C(COc1cc(C(F)(F)F)c(Cl)cc1NC(=O)NCc1ccc2c(c1)CN(C1CCC(=O)NC1=O)C2=O)C(=O)N1CCN(c2nc(OC[C@@H]3CCCN3C)nc3c2CCN(c2cccc4cccc(Cl)c24)C3)C[C@@H]1CC#N (stereo partly drawn) [Compound I-88] | < 50 nM | 500 to 1500 nM | < 500 nM | < 100 nM
19 | C=C(COc1cc(NC(=O)NCc2ccc3c(c2)CN(C2CCC(=O)NC2=O)C3=O)ccc1OC)C(=O)N1CCN(c2nc(OC[C@@H]3CCCN3C)nc3c2CCN(c2cccc4cccc(Cl)c24)C3)C[C@@H]1CC#N (stereo partly drawn) [Compound I-89] | 500 to 2500 nM | > 10000 nM | > 10000 nM | < 100 nM
20 | C=C(COc1c(CNC(=O)Nc2ccc(C)c(Cl)c2)ccc2c1CN(C1CCC(=O)NC1=O)C2=O)C(=O)N1CCN(c2nc(OC[C@@H]3CCCN3C)nc3c2CCN(c2cccc4cccc(Cl)c24)C3)C[C@@H]1CC#N (stereo partly drawn) [Compound I-90] | 50 to 500 nM | > 10000 nM | < 500 nM | < 100 nM
21 | C=C(COc1cc(Cl)cc(NC(=O)NCc2ccc3c(c2F)CN(C2CCC(=O)NC2=O)C3=O)c1)C(=O)N1CCN(c2nc(OC[C@@H]3CCCN3C)nc3c2CCN(c2cccc4cccc(Cl)c24)C3)C[C@@H]1CC#N (stereo partly drawn) [Compound I-116] | 500 to 2500 nM | > 10000 nM | 1500 to 10000 nM | < 100 nM
